# In patent publication US9802899B2, “Heterocyclic compounds as pesticides” (BAYER CROPSCIENCE AG, priority 2012, dated 2017):
# Assay: Determination of the log P values by HPLC (formic acid method)
# Assay type: physicochemical
# Settings: reversed-phase HPLC column (C 18), reversed-phase column (C 18), acidic range (pH 3.4), 55° C.
# Method: 1) Description of Method for Determination of the Log P Values (Formic Acid Method)
# Eluents for determination in the acidic range (pH 3.4):
# Eluent A: acetonitrile+1 ml of formic acid/liter. Eluent B: water+0.9 ml of formic acid/liter.
# The lambda max values were determined in the maxima of the chromatographic signals using the UV spectra from 200 nm to 400 nm.
row,SMILES,chromatographic logP
1,"Nc1ccn(-c2cccc(F)c2F)n1 [1-(2,3-Difluorophenyl)-1H-pyrazole-3-amine]",1.56
2,CCOc1c(Cl)cccc1-n1ccc(N)n1 [1-(3-Chloro-2-ethoxyphenyl)-1H-pyrazole-3-amine],2.13
3,CCOc1cccc(Cl)c1-n1ccc(N)n1 [1-(2-Chloro-6-ethoxyphenyl)-1H-pyrazole-3-amine],2.13
4,"N#Cc1c(Cl)ccnc1-n1ccc(NC(=O)c2ccccc2C(F)(F)F)n1 [Compound I-1-586, N-[1-(4-Chloro-3-cyanopyridin-2-yl)-1H-pyrazol-3-yl]-2-(trifluoromethyl)benzamide]",2.67
5,"N#Cc1ccc(C(F)(F)F)nc1-n1ccc(NC(=O)c2ccccc2C(F)(F)F)n1 [Compound I-1-569, N-{1-[3-Cyano-6-(trifluoromethyl)pyridin-2-yl]-1H-pyrazol-3-yl}-2-(trifluoromethyl)benzamide]",3.41
6,O=C(Nc1cc[nH]n1)c1ccccc1C(F)(F)F [N-(1H-Pyrazol-3-yl)-2-(trifluoromethyl)benzamide],1.33
7,"O=C(Nc1ccn(-c2c(F)cc(C(F)(F)F)cc2F)n1)c1ccccc1C(F)(F)F [Compound I-1-230, N-{1-[2,6-Difluoro-4-(trifluoromethyl)phenyl]-1H-pyrazol-3-yl}-2-(trifluoromethyl)benzamide]",3.39

# Same assay, conditions: reversed-phase column (C 18), acidic range (pH 3.4), 55° C.
row,SMILES,log P
1,O=C(Nc1ccn(-c2c(F)cccc2F)n1)C1=C(C(F)F)OCCS1 [Compound I-1-611],2.53
2,Cc1nn(-c2ncccc2Cl)nc1N(C(=O)c1ccccc1C(F)(F)F)C(=O)c1ccccc1C(F)(F)F [Compound I-2-54],3.93
3,Cn1nc(C(C)(C)C)c(Cl)c1C(=O)Nc1ccn(-c2ncc(F)cc2F)n1 [Compound I-1-513],3.89
4,N#Cc1c(F)cccc1-n1ccc(NC(=O)c2c(F)cccc2F)n1 [Compound I-1-619],2.45
5,O=C(Nc1ccn(-c2ccccc2Cl)n1)c1cccnc1I [Compound I-1-369],2.27
6,Cc1cc(NC(=O)c2cccnc2Br)nn1-c1ccccc1Cl [Compound I-1-359],1.85
7,Cn1nc(C(F)(F)C(F)(F)F)c(C(F)(F)F)c1C(=O)Nc1ccn(-c2c(F)cccc2F)n1 [Compound I-1-237],3.84
8,N#Cc1cc(F)c(-n2nc(NC(=O)c3ccccc3C(F)(F)F)c3c(F)cccc32)cc1F [Compound I-5-10],3.26
9,Cc1nn(C)c(C(=O)Nc2ccn(-c3ncc(F)cc3F)n2)c1Br [Compound I-1-517],2.53
10,O=C(Nc1ccn(-c2ccc(F)cc2F)n1)c1ccccc1Br [Compound I-1-209],2.95
11,O=C(Nc1ccn(-c2c(F)cccc2F)n1)c1cc(Cl)ccc1C(F)(F)F [Compound I-1-329],3.11
12,O=C(Nc1cnn(-c2c(F)cccc2F)n1)c1ccsc1I [Compound I-2-40],2.90
13,O=C(Nc1ccn(-c2ncc(F)cc2F)n1)c1ccccc1CC(F)(F)F [Compound I-1-635],2.80
14,O=C(Nc1ccn(-c2ccccc2Cl)n1)c1cccnc1F [Compound I-1-364],2.38
15,O=C(Nc1cnn(-c2ncccc2Cl)n1)c1ccccc1Cl [Compound I-2-12],2.22
16,O=C(Nc1ccn(-c2ccc(F)cn2)n1)c1ccccc1I [Compound I-1-599],2.78
17,Cn1nc(C(F)(F)F)c(Br)c1C(=O)Nc1ccn(-c2c(F)cccc2F)n1 [Compound I-1-303],3.37
18,CCc1ncccc1C(=O)Nc1ccn(-c2c(F)cccc2F)n1 [Compound I-1-275],1.47
19,O=C(Nc1ccn(-c2c(F)cccc2F)n1)c1c(F)cccc1Br [Compound I-1-613],2.72
20,N#Cc1cc(F)ccc1-n1ccc(NC(=O)c2c(F)cccc2F)n1 [Compound I-1-628],2.39
21,Cc1nn(-c2ncccc2Cl)nc1N(C(=O)c1ccccc1I)C(=O)c1ccccc1I [Compound I-2-61],4.03
22,N#Cc1ccccc1-n1ccc(NC(=O)c2ccccc2Cl)n1 [Compound I-1-8],2.38
23,O=C(Nc1ccn(-c2nccnc2F)n1)c1c(F)cccc1F [Compound I-1-177],1.94
24,Cc1ccc(-n2ccc(NC(=O)c3ccccc3Br)n2)c(Cl)c1 [Compound I-1-338],3.23

row,SMILES,log P
1,O=C(Nc1ccn(-c2ncc(F)cc2F)n1)c1ccccc1O [Compound I-1-148],2.48
2,O=C(c1ccccc1Cl)N(CC1CC1)c1ccn(-c2ccccc2Cl)n1 [Compound I-1-24],3.85
3,O=C(Nc1ccn(-c2c(F)cccc2F)c1)c1c(F)cccc1F [Compound I-3-2],2.68
4,O=C(Nc1nn(-c2cc(F)cnc2F)c2ccc(F)cc12)c1ccccc1C(F)(F)F [Compound I-5-7],3.39
5,N#Cc1cn(-c2ccccc2Cl)nc1NC(=O)c1ccccc1C(F)(F)F [Compound I-1-346],2.53
6,O=C(Nc1cnn(-c2ncccc2F)n1)c1cccnc1C(F)(F)F [Compound I-2-45],1.76
7,CCCn1ncc(I)c1C(=O)Nc1ccn(-c2c(F)cccc2F)n1 [Compound I-1-325],3.11
8,Cc1nn(C)c(C(=O)Nc2ccn(-c3c(F)cccc3F)n2)c1F [Compound I-1-320],2.20
9,O=C(Nc1ccn(-c2ccccc2Cl)n1)c1cccc(Cl)c1Cl [Compound I-1-350],3.20
10,O=C(NC1=NN(c2c(F)cccc2F)CC1)c1ccccc1I [Compound I-4-4],2.31
11,N#Cc1c(F)cccc1-n1ccc(NC(=O)c2ccsc2I)n1 [Compound I-1-624],2.79
12,O=C(Nc1ccn(-c2ccccn2)n1)c1ccccc1Cl [Compound I-1-420],2.33
13,Cn1ncc(Br)c1C(=O)Nc1ccn(-c2ncc(F)cc2F)n1 [Compound I-1-521],2.23
14,O=C(Nc1ccn(-c2ncnc(F)c2F)n1)c1ccccc1Br [Compound I-1-170],2.46
15,O=C(Nc1cnn(-c2ncc(F)cc2F)n1)c1ccsc1I [Compound I-2-72],2.44
16,O=C(Nc1ccn(-c2ccccc2Cl)n1)c1sccc1Cl [Compound I-1-377],3.29
17,N#Cc1c(F)cccc1-n1ccc(NC(=O)c2cccnc2Cl)n1 [Compound I-1-622],1.95
18,O=C(Nc1ccn(-c2ncc(F)cc2F)n1)c1cc(F)ccc1C(F)(F)F [Compound I-1-506],2.65
19,O=C(Nc1ccn(-c2ncc(F)cc2F)n1)c1c(C(F)(F)F)cc(F)c(F)c1F [Compound I-1-516],2.98
20,CCN(C(=O)c1ccccc1C(F)(F)F)c1ccn(-c2c(F)cccc2F)n1 [Compound I-1-254],3.31
21,O=C(Nc1ccn(-c2nc(F)c(F)cc2F)n1)c1ccccc1C(F)(F)F [Compound I-1-162],2.78
22,O=C(Nc1cnn(-c2ncc(F)cc2F)n1)c1ccccc1C(F)(F)F [Compound I-2-66],2.43
23,O=C(Nc1ccn(-c2ncc(F)cc2F)n1)c1cccnc1OC(F)(F)F [Compound I-1-464],2.53
24,O=C(Nc1ccn(-c2ncc(F)cc2F)n1)c1cncnc1C(F)(F)F [Compound I-1-154],2.00

row,SMILES,log P
1,CC1=C(C(=O)Nc2ccn(-c3ncc(F)cc3F)n2)CCCO1 [Compound I-1-548],2.10
2,O=C(Nc1ccn(-c2ncc(Cl)cc2F)n1)c1ccccc1I [Compound I-1-593],2.89
3,O=C(Nc1ccn(-c2c(F)cccc2F)n1)c1ccccc1NC(=O)C(F)(F)F [Compound I-1-612],3.53
4,O=C(Nc1ccn(-c2nccnc2F)n1)c1ncccc1C(F)(F)F [Compound I-1-178],1.77
5,O=C(Nc1ccn(-c2cncc(F)n2)n1)c1ccccc1C(F)(F)F [Compound I-1-401],3.33
6,Cc1nc(C(F)(F)F)c(C(=O)Nc2ccn(-c3c(F)cccc3F)n2)s1 [Compound I-1-114],2.58
7,O=C(Nc1ccn(-c2ncc(F)cn2)n1)c1cccnc1C(F)(F)F [Compound I-1-601],1.73
8,CC1=C(C(=O)Nc2ccn(-c3c(F)cccc3F)n2)CCCO1 [Compound I-1-333],2.30
9,O=C(Nc1ccn(-c2ncccc2Cl)n1)c1ccccc1C(F)(F)F [Compound I-1-135],2.41
10,Cc1c(F)cnc(F)c1-n1ccc(NC(=O)c2ccccc2C(F)(F)F)n1 [Compound I-1-217],3.06
11,Cc1ncccc1C(=O)Nc1ccn(-c2ccccc2Cl)n1 [Compound I-1-41],1.44
12,O=C(Nc1ccn(-c2ccccc2Br)n1)c1c(F)cccc1F [Compound I-1-334],2.70
13,O=C(Nc1ccn(-c2ncc(F)cc2F)n1)c1c(F)cccc1C(F)(F)F [Compound I-1-491],2.57
14,Cn1nc(C(F)F)c(C(=O)Nc2ccn(-c3ccccc3Br)n2)c1F [Compound I-1-58],2.63
15,CC1=C(C(=O)Nc2ccn(-c3ccccc3Cl)n2)SCCO1 [Compound I-1-372],2.75
16,N#Cc1cc(F)ccc1-n1ccc(NC(=O)c2ccccc2C(F)(F)F)n1 [Compound I-1-626],2.67
17,Cn1cc([N+](=O)[O-])c(C(=O)Nc2ccn(-c3ncc(F)cc3F)n2)n1 [Compound I-1-453],1.69
18,Cc1cc(NC(=O)c2ccccc2Br)nn1-c1ccccc1Cl [Compound I-1-356],2.45
19,Cc1cc(NC(=O)c2ccccc2C(F)(F)F)nn1-c1ccc(F)cc1F [Compound I-1-202],3.78
20,Cc1ccccc1C(=O)NC1=NN(c2c(F)cccc2F)CC1 [Compound I-4-5],2.21
21,O=C(Nc1ccn(-c2c(F)cccc2F)n1)C1=C(C(F)(F)F)OCCS1 [Compound I-1-102],2.56
22,Cc1nn(C(F)F)c(C(=O)Nc2ccn(-c3ncc(F)cc3F)n2)c1Cl [Compound I-1-525],2.84
